Experiment: Pre-bronchodilator FEV1 and percent predicted FEV1 by spirometry, change from baseline
Assay type: in vivo, human
Details: for Change from baseline in pre-bronchodilator FEV1, LS Mean (SE) / Change from baseline in pre-bronchodilator FEV1, LS Mean Diff vs. placebo (95% CI) / Change from baseline in pre-bronchodilator FEV1, Mean (SD): EOT (Week 12); for FEV1 change / improvement (in words): following ICS/LABA withdrawal, both cohorts
Protocol: Spirometry is a standard test to measure patients' lung function.
The primary endpoint was the proportion of patients with LOAC. The key secondary endpoint for the study was change in pre-bronchodilator FEV1 from baseline at EOT.
Reversibility is defined as an increase of the absolute FEV1 after administration of bronchodilator and is measured by spirometry as postbronchodilator increase in FEV1 in percent of the prebronchodilator FEV1. After spirometry for measuring prebronchodilator FEV1, participants were to receive 2-4 puffs of albuterol/salbutamol or levalbuterol/levosalbutamol from a primed MDI. The postbronchodilator spirometry may have been repeated several times within 30 minutes after administration of bronchodilator. Alternatively, and only if it was consistent with usual office practice (to be documented), reversibility may have been performed using inhalation of nebulized albuterol/salbutamol or levalbuterol/levosalbutamol.
Secondary endpoints included pre-bronchodilator FEV1 change from baseline at EOT, ACQ-5 score change from baseline, and AQLQ score change from baseline. Other secondary and exploratory endpoints are described in Table 2.

[1] = 400 mg TID, Week 12, baseline FeNO ≥35 ppb
[2] = 400 mg TID, Week 12, baseline IgA <2190 mg/L (median)
[3] = 400 mg TID, Week 12, baseline IgA ≥2190 mg/L (median)
[4] = 400 mg TID, Week 12, baseline IgE <100 IU/mL
[5] = 400 mg TID, Week 12, baseline IgE <121.85 IU/mL (median)
[6] = 400 mg TID, Week 12, baseline IgE ≥100 IU/mL
[7] = 400 mg TID, Week 12, baseline IgE ≥121.85 IU/mL (median)
[8] = 400 mg TID, Week 12, baseline blood eosinophils <0.15 10^9/L
[9] = 400 mg TID, Week 12, baseline blood eosinophils <0.3 10^9/L
[10] = 400 mg TID, Week 12, baseline blood eosinophils ≥0.15-<0.3 10^9/L
[11] = 400 mg TID, Week 12, baseline blood eosinophils ≥0.3 10^9/L
[12] = 400 mg TID, Week 12, baseline percent predicted FEV1 <77% (median)
[13] = 400 mg TID, Week 12, baseline percent predicted FEV1 <80%
[14] = 400 mg TID, Week 12, baseline percent predicted FEV1 ≥77% (median)
[15] = 400 mg TID, Week 12, baseline percent predicted FEV1 ≥80%
[16] = 400 mg TID, Week 12, baseline weight ≥60-<90 kg
[17] = 400 mg TID, Week 12, baseline weight ≥90 kg
[18] = 400 mg TID, Week 12, smoking history Former
[19] = 400 mg TID, Week 12, smoking history Never
[20] = 400 mg TID, low EOS (<0.15) and low FeNO (<25), mITT
[21] = 400 mg TID, Week 2, observed/LOCF imputed, mITT
[22] = 400 mg TID, Week 4, observed/LOCF imputed, mITT
[23] = 400 mg TID, Week 6, observed/LOCF imputed, mITT
[24] = 400 mg TID, Week 8, observed/LOCF imputed, mITT
[25] = 400 mg TID, Week 10, observed/LOCF imputed, mITT
[26] = 400 mg TID, Week 12 (EOT), MMRM supplementary analysis, mITT
[27] = 400 mg TID, Week 12 (EOT), MMRM, mITT
[28] = 400 mg TID, Week 12, observed/LOCF imputed, mITT
[29] = 400 mg TID, Week 12, reduced model, mITT

CC(C)(C=C(C#N)C(=O)N1CCC[C@@H](n2nc(-c3ccc(Oc4ccccc4)cc3F)c3c(N)ncnc32)C1)N1CCN(C2COC2)CC1 (mixture of isomers) [rilzabrutinib, (R)-2-[3-[4-amino-3-(2-fluoro-4-phenoxy-phenyl)pyrazolo[3,4-d]pyrimidin-1-yl]piperidine-1-carbonyl]-4-methyl-4-[4-(oxetan-3-yl)piperazin-1-yl]pent-2-enenitrile]
Pre-bronchodilator FEV1 change from baseline, LS Mean Diff vs. placebo [1]: -0.12 L | Pre-bronchodilator FEV1 change from baseline, Mean [1]: -0.07 L | Pre-bronchodilator FEV1 change from baseline, LS Mean [2]: -0.12 L | Pre-bronchodilator FEV1 change from baseline, LS Mean Diff vs. placebo [2]: -0.09 L | Pre-bronchodilator FEV1 change from baseline, Mean [2]: -0.12 L | Pre-bronchodilator FEV1 change from baseline, LS Mean [3]: -0.15 L | Pre-bronchodilator FEV1 change from baseline, LS Mean Diff vs. placebo [3]: -0.09 L | Pre-bronchodilator FEV1 change from baseline, Mean [3]: -0.17 L | Pre-bronchodilator FEV1 change from baseline, LS Mean [4]: -0.10 L | Pre-bronchodilator FEV1 change from baseline, LS Mean Diff vs. placebo [4]: -0.11 L | Pre-bronchodilator FEV1 change from baseline, Mean [4]: -0.20 L | Pre-bronchodilator FEV1 change from baseline, LS Mean [5]: -0.16 L | Pre-bronchodilator FEV1 change from baseline, LS Mean Diff vs. placebo [5]: -0.08 L | Pre-bronchodilator FEV1 change from baseline, Mean [5]: -0.17 L | Pre-bronchodilator FEV1 change from baseline, LS Mean [6]: -0.13 L | Pre-bronchodilator FEV1 change from baseline, LS Mean Diff vs. placebo [6]: -0.07 L | Pre-bronchodilator FEV1 change from baseline, Mean [6]: -0.12 L | Pre-bronchodilator FEV1 change from baseline, LS Mean [7]: -0.33 L | Pre-bronchodilator FEV1 change from baseline, LS Mean Diff vs. placebo [7]: -0.11 L | Pre-bronchodilator FEV1 change from baseline, Mean [7]: -0.13 L | Pre-bronchodilator FEV1 change from baseline, LS Mean [8]: -0.17 L | Pre-bronchodilator FEV1 change from baseline, LS Mean Diff vs. placebo [8]: -0.05 L | Pre-bronchodilator FEV1 change from baseline, Mean [8]: -0.17 L | Pre-bronchodilator FEV1 change from baseline, LS Mean [9]: -0.13 L | Pre-bronchodilator FEV1 change from baseline, LS Mean Diff vs. placebo [9]: -0.05 L | Pre-bronchodilator FEV1 change from baseline, Mean [9]: -0.15 L | Pre-bronchodilator FEV1 change from baseline, LS Mean [10]: -0.04 L | Pre-bronchodilator FEV1 change from baseline, LS Mean Diff vs. placebo [10]: -0.04 L | Pre-bronchodilator FEV1 change from baseline, Mean [10]: -0.10 L | Pre-bronchodilator FEV1 change from baseline, LS Mean [11]: -0.16 L | Pre-bronchodilator FEV1 change from baseline, LS Mean Diff vs. placebo [11]: -0.20 L | Pre-bronchodilator FEV1 change from baseline, Mean [11]: -0.16 L | Pre-bronchodilator FEV1 change from baseline, LS Mean [12]: -0.03 L | Pre-bronchodilator FEV1 change from baseline, LS Mean Diff vs. placebo [12]: -0.04 L | Pre-bronchodilator FEV1 change from baseline, Mean [12]: -0.10 L | Pre-bronchodilator FEV1 change from baseline, LS Mean [13]: -0.09 L | Pre-bronchodilator FEV1 change from baseline, LS Mean Diff vs. placebo [13]: -0.08 L | Pre-bronchodilator FEV1 change from baseline, Mean [13]: -0.13 L | Pre-bronchodilator FEV1 change from baseline, LS Mean [14]: -0.21 L | Pre-bronchodilator FEV1 change from baseline, LS Mean Diff vs. placebo [14]: -0.13 L | Pre-bronchodilator FEV1 change from baseline, Mean [14]: -0.19 L | Pre-bronchodilator FEV1 change from baseline, LS Mean [15]: -0.20 L | Pre-bronchodilator FEV1 change from baseline, LS Mean Diff vs. placebo [15]: -0.11 L | Pre-bronchodilator FEV1 change from baseline, Mean [15]: -0.17 L | Pre-bronchodilator FEV1 change from baseline, LS Mean [16]: -0.13 L | Pre-bronchodilator FEV1 change from baseline, LS Mean Diff vs. placebo [16]: -0.07 L | Pre-bronchodilator FEV1 change from baseline, Mean [16]: -0.15 L | Pre-bronchodilator FEV1 change from baseline, LS Mean [17]: -0.15 L | Pre-bronchodilator FEV1 change from baseline, LS Mean Diff vs. placebo [17]: -0.05 L | Pre-bronchodilator FEV1 change from baseline, Mean [17]: -0.17 L | Pre-bronchodilator FEV1 change from baseline, LS Mean (400 mg TID, Week 12, female): -0.11 L | Pre-bronchodilator FEV1 change from baseline, LS Mean Diff vs. placebo (400 mg TID, Week 12, female): -0.09 L | Pre-bronchodilator FEV1 change from baseline, Mean (400 mg TID, Week 12, female): -0.14 L | Pre-bronchodilator FEV1 change from baseline, LS Mean (400 mg TID, Week 12, male): -0.15 L | Pre-bronchodilator FEV1 change from baseline, LS Mean Diff vs. placebo (400 mg TID, Week 12, male): -0.09 L | Pre-bronchodilator FEV1 change from baseline, Mean (400 mg TID, Week 12, male): -0.16 L | Pre-bronchodilator FEV1 change from baseline, LS Mean [18]: -0.12 L | Pre-bronchodilator FEV1 change from baseline, LS Mean Diff vs. placebo [18]: -0.05 L | Pre-bronchodilator FEV1 change from baseline, Mean [18]: -0.21 L | Pre-bronchodilator FEV1 change from baseline, LS Mean [19]: -0.13 L | Pre-bronchodilator FEV1 change from baseline, LS Mean Diff vs. placebo [19]: -0.09 L | Pre-bronchodilator FEV1 change from baseline, Mean [19]: -0.15 L | Difference vs. placebo, LS mean change in pre-bronchodilator FEV1 (L) at Week 12 (400 mg TID, 95% CI −0.21, 0.03, p=0.1523): -0.09 L | Change from baseline in pre-bronchodilator FEV1, LS Mean (SE) (400 mg TID, all others, mITT): -0.09 L | Change from baseline in pre-bronchodilator FEV1, LS Mean Diff vs. placebo (95% CI) (400 mg TID, all others, mITT): -0.07 L | Change from baseline in pre-bronchodilator FEV1, Mean (SD) (400 mg TID, all others, mITT, n=30): -0.11 L | Change from baseline in pre-bronchodilator FEV1, LS Mean (SE) [20]: -0.20 L | Change from baseline in pre-bronchodilator FEV1, LS Mean Diff vs. placebo (95% CI) [20]: -0.14 L | Change from baseline in pre-bronchodilator FEV1, Mean (SD) (400 mg TID, low EOS (<0.15) and low FeNO (<25), mITT, n=16): -0.24 L | LS Mean change from baseline in pre-bronchodilator FEV1 (L) at Week 12 (400 mg TID, N=64, mITT): −0.13 (0.05) L | Pre-bronchodilator FEV1, mean [21]: 2.47 L | Pre-bronchodilator FEV1, median [21]: 2.37 L | Pre-bronchodilator FEV1 change from baseline, LS Mean [21]: -0.05 L | Pre-bronchodilator FEV1 change from baseline, LS Mean Diff vs. placebo [21]: -0.04 L | Pre-bronchodilator FEV1 change from baseline, Mean [21]: -0.04 L | Pre-bronchodilator FEV1 change from baseline, median [21]: -0.02 L | Pre-bronchodilator FEV1, mean [22]: 2.58 L | Pre-bronchodilator FEV1, median [22]: 2.50 L | Pre-bronchodilator FEV1 change from baseline, LS Mean [22]: -0.01 L | Pre-bronchodilator FEV1 change from baseline, LS Mean Diff vs. placebo [22]: 0.05 L | Pre-bronchodilator FEV1 change from baseline, Mean [22]: 0.02 L | Pre-bronchodilator FEV1 change from baseline, median [22]: -0.01 L | Pre-bronchodilator FEV1, mean [23]: 2.52 L | Pre-bronchodilator FEV1, median [23]: 2.37 L | Pre-bronchodilator FEV1 change from baseline, LS Mean [23]: -0.07 L | Pre-bronchodilator FEV1 change from baseline, LS Mean Diff vs. placebo [23]: 0.04 L | Pre-bronchodilator FEV1 change from baseline, Mean [23]: -0.07 L | Pre-bronchodilator FEV1 change from baseline, median [23]: -0.09 L | Pre-bronchodilator FEV1, mean [24]: 2.41 L | Pre-bronchodilator FEV1, median [24]: 2.38 L | Pre-bronchodilator FEV1 change from baseline, LS Mean [24]: -0.07 L | Pre-bronchodilator FEV1 change from baseline, LS Mean Diff vs. placebo [24]: 0.03 L | Pre-bronchodilator FEV1 change from baseline, Mean [24]: -0.12 L | Pre-bronchodilator FEV1 change from baseline, median [24]: -0.10 L | Pre-bronchodilator FEV1, mean [25]: 2.53 L | Pre-bronchodilator FEV1, median [25]: 2.50 L | Pre-bronchodilator FEV1 change from baseline, LS Mean [25]: -0.09 L | Pre-bronchodilator FEV1 change from baseline, LS Mean Diff vs. placebo [25]: 0.00 L | Pre-bronchodilator FEV1 change from baseline, Mean [25]: -0.10 L | Pre-bronchodilator FEV1 change from baseline, median [25]: -0.09 L | Change from baseline in pre-bronchodilator FEV1, Mean [26]: -0.14 L | Change from baseline in pre-bronchodilator FEV1, Median [26]: -0.09 L | Pre-bronchodilator FEV1, Mean [26]: 2.46 L | Pre-bronchodilator FEV1, Median [26]: 2.40 L | Change from baseline in pre-bronchodilator FEV1, LS Mean [27]: -0.16 L | Change from baseline in pre-bronchodilator FEV1, LS Mean diff vs. placebo [27]: -0.08 L | Change from baseline in pre-bronchodilator FEV1, Mean [28]: -0.15 L | Change from baseline in pre-bronchodilator FEV1, Median [28]: -0.12 L | Pre-bronchodilator FEV1, Mean [28]: 2.43 L | Pre-bronchodilator FEV1, Median [28]: 2.39 L | Pre-bronchodilator FEV1, mean [28]: 2.43 L | Pre-bronchodilator FEV1, median [28]: 2.39 L | Pre-bronchodilator FEV1 change from baseline, LS Mean [28]: -0.13 L | Pre-bronchodilator FEV1 change from baseline, LS Mean Diff vs. placebo [28]: -0.09 L | Pre-bronchodilator FEV1 change from baseline, Mean [28]: -0.15 L | Pre-bronchodilator FEV1 change from baseline, median [28]: -0.12 L | Change from baseline in pre-bronchodilator FEV1, LS Mean [29]: -0.13 L | Change from baseline in pre-bronchodilator FEV1, LS Mean diff vs. placebo [29]: -0.09 L | FEV1 change / improvement (in words): did not exhibit any change in FEV1 | FEV1 change / improvement (in words) (listed as Rilzabrutinib): not associated with an improvement in FEV1 values

From patent US20260345619A1 (Principia Biopharma Inc., priority 2023, published 2026)
